Target: T1, CB2 (Homo sapiens, UniProt P34972)
T1 construct: measured in whole blood samples from nine different healthy human volunteers of working-age; endogenous in cells; host or cells: B-cells (and basophils and other leukocytes) in human whole blood
Test: Phase I clinical trial CB2 target engagement on B-cells in healthy volunteers
Assay type: in vivo
Details: for time of nadir (lowest CB2 surface expression) post-dose: single oral dose
Protocol: FIG. 13: Arithmetic Mean (+SD) Percentage Change-from-Baseline (CFB) of CB2-Receptor Target Engagement on B-cells in Blood versus Time Following Single Oral Dose Administration of 0.75 mg to 300 mg RG7774 in the Fasted State (n=6 on active drug vs 2 on placebo per dose level).
FIG. 14: Arithmetic Mean (+SD) Percentage Change-from-Baseline (CFB) of CB2-Receptor Target Engagement on B-cells in Blood versus Time Following Single Oral Dose Administration of 100 mg RG7774 in fasted and fed state.
FIG. 15: Arithmetic Mean (+SD) Percentage Change-from-Baseline (CFB) of CB2-Receptor Target Engagement on B-cells in Blood versus Time Following Multiple Oral Dose Administration of 20 mg to 300 mg RG7774 once daily for 14 Days.
The clinical utility of the newly developed CB2 flow cytometry assay as a measure for target engagement in a clinical setting was confirmed by its successful implementation in a phase I clinical trial in healthy volunteers. In the clinical setting B/T-cell ratio was not used as it introduced higher variability relative to the baseline normalized B-cell data alone.
In a first step, oral administration of a single ascending dose (SAD) of RG7774 in the range between 0.75 mg and 300 mg in the fasted state was assessed. Following oral administration of RG774, the onset of CB2 internalization was rapid, with the nadir (lowest CB2 surface expression) achieved at 4 hours post-dose for doses below 10 mg RG7774, and at 1 hour post-dose for doses at 10 mg to 30 mg RG7774 (FIG. 13). For the two highest tested doses of 100 mg and 300 mg RG7774, the time to reach the nadir shifted with the area under the effect curve increasing. […] This indicates successful target engagement of RG7774 upon oral dosing. Furthermore, the assay was utilized to inform stopping rules for dose escalation in the SAD part of the first-in-human (FIH) trial.
In a third part of the FIH study, the effects of multiple ascending doses (MAD) of 20 mg to 300 mg RG7774 administered once daily over 14 days on CB2 internalization were investigated (FIG. 15).

[1] = 20 mg to 300 mg once daily over 14 days

T1 sequence (P34972 whole entry): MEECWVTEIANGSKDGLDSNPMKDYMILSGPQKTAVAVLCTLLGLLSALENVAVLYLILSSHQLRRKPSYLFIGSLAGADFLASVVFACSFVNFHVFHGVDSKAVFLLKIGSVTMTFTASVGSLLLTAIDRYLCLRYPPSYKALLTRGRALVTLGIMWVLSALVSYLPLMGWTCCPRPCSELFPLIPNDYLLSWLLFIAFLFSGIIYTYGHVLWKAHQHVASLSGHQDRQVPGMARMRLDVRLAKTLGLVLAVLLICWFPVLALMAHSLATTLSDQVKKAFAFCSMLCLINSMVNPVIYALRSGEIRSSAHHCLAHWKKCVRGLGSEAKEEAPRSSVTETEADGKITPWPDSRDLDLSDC

SMILES: Cn1nnnc1Cn1nnc2c(N3CC[C@H](O)C3)nc(C(C)(C)C)nc21 [RG7774, (S)-1-[5-tert-Butyl-3-(1-methyl-1H-tetrazol-5-ylmethyl)-3H-[1,2,3]triazolo [4,5-d]pyrimidin-7-yl]-pyrrolidin-3-ol]
- desensitization of CB2 internalization [1]: no desensitization was observed
- steady-state of PD effect [1]: steady-state was reached during the observation period
- impact of food consumption on the pharmacodynamic (PD) effects (100 mg single dose, fasted (n=8) vs fed (n=8)): no relevant impact
- time to reversal of reduction of CB2 surface receptor expression upon stopping the drug (after 14 days once daily, not yet fully reversed for the two highest doses): ~1 week
- extent of CB2 internalization (CB2 target engagement) (single ascending dose 0.75 mg to 300 mg, fasted): increased dose-dependently
- time of nadir (lowest CB2 surface expression) post-dose (fasted, doses at 10 mg to 30 mg): 1 h
- time of nadir (lowest CB2 surface expression) post-dose (fasted, doses below 10 mg): 4 h

Source: patent US20260029420A1, “ANTI-CB2 ANTIBODIES AND THEIR USE IN A FLOW CYTOMETRY ASSAY TO MEASURE CELL SURFACE CB2 EXPRESSION” (Hoffmann-La Roche Inc., priority 2022, published 2026)
